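Following 48 hours of exposure in 96-well plates, responses at five concentrations were used to interpolate endpoints linearly. GI50 marks 50% less growth. TGI is the concentration that stops growth completely.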
Columns and labels:
Assay in all cases: NCI anticancer screen, dose series, 48 h
HCT-15 colon = system: HCT-15 colon
SF-295 CNS = system: SF-295 CNS
HS 578T breast = system: HS 578T breast
PC-3 prostate = system: PC-3 prostate
SF-539 CNS = system: SF-539 CNS
UACC-62 melanoma = system: UACC-62 melanoma
KM12 colon = system: KM12 colon
UO-31 renal = system: UO-31 renal
HCC-2998 colon = system: HCC-2998 colon
DU-145 prostate = system: DU-145 prostate
786-0 renal = system: 786-0 renal
MDA-MB-435 = system: MDA-MB-435
SNB-19 CNS = system: SNB-19 CNS
EKVX NSCLC = system: EKVX NSCLC
SK-MEL-2 melanoma = system: SK-MEL-2 melanoma
OVCAR-5 ovarian = system: OVCAR-5 ovarian
NCI-H226 lung = system: NCI-H226 lung
COLO 205 colon = system: COLO 205 colon
LOX IMVI melanoma = system: LOX IMVI melanoma
T-47D breast = system: T-47D breast
NCI/ADR-RES ovarian = system: NCI/ADR-RES ovarian
HT29 colon = system: HT29 colon
HOP-62 NSCLC = system: HOP-62 NSCLC
NCI-H522 lung = system: NCI-H522 lung
NCI-H460 lung = system: NCI-H460 lung
OVCAR-4 ovarian = system: OVCAR-4 ovarian
SN12C renal = system: SN12C renal
SF-268 CNS = system: SF-268 CNS
TK-10 renal = system: TK-10 renal
OVCAR-3 ovarian = system: OVCAR-3 ovarian
HCT-116 colon = system: HCT-116 colon
MOLT-4 leukemia = system: MOLT-4 leukemia
SK-MEL-28 melanoma = system: SK-MEL-28 melanoma
HOP-92 NSCLC = system: HOP-92 NSCLC
SW-620 colon = system: SW-620 colon
IGROV1 ovarian = system: IGROV1 ovarian
A498 renal = system: A498 renal
HL-60(TB) leukemia = system: HL-60(TB) leukemia
BT-549 breast = system: BT-549 breast
SK-OV-3 ovarian = system: SK-OV-3 ovarian
OVCAR-8 ovarian = system: OVCAR-8 ovarian
M14 melanoma = system: M14 melanoma
SK-MEL-5 melanoma = system: SK-MEL-5 melanoma
MCF7 breast = system: MCF7 breast
UACC-257 melanoma = system: UACC-257 melanoma
U251 CNS = system: U251 CNS
NCI-H23 lung = system: NCI-H23 lung
MDA-MB-231 breast = system: MDA-MB-231 breast
RXF 393 renal = system: RXF 393 renal
A549 NSCLC = system: A549 NSCLC
CCRF-CEM leukemia = system: CCRF-CEM leukemia
ACHN renal = system: ACHN renal
K-562 leukemia = system: K-562 leukemia
CAKI-1 renal = system: CAKI-1 renal
RPMI-8226 leukemia = system: RPMI-8226 leukemia
SNB-75 CNS = system: SNB-75 CNS

CC1=NN(C2=NS(=O)(=O)c3ccccc3N2C)C(=O)C1
TGI (HCT-15 colon): > 100 µM | TGI (SF-295 CNS): > 100 µM | TGI (HS 578T breast): > 100 µM | TGI (PC-3 prostate): > 100 µM | TGI (SF-539 CNS): > 100 µM | TGI (UACC-62 melanoma): > 100 µM | TGI (KM12 colon): > 100 µM | TGI (UO-31 renal): > 100 µM | TGI (HCC-2998 colon): > 100 µM | TGI (DU-145 prostate): > 100 µM | TGI (786-0 renal): > 100 µM | TGI (MDA-MB-435): > 100 µM | TGI (SNB-19 CNS): > 100 µM | TGI (EKVX NSCLC): > 100 µM | TGI (SK-MEL-2 melanoma): > 100 µM | TGI (OVCAR-5 ovarian): > 100 µM | TGI (NCI-H226 lung): > 100 µM | TGI (COLO 205 colon): > 100 µM | TGI (LOX IMVI melanoma): > 100 µM | TGI (T-47D breast): > 100 µM | TGI (NCI/ADR-RES ovarian): > 100 µM | TGI (HT29 colon): > 100 µM | TGI (HOP-62 NSCLC): > 100 µM | TGI (NCI-H522 lung): > 100 µM | TGI (NCI-H460 lung): > 100 µM | TGI (OVCAR-4 ovarian): > 100 µM | TGI (SN12C renal): > 100 µM | TGI (SF-268 CNS): > 100 µM | TGI (TK-10 renal): > 100 µM | TGI (OVCAR-3 ovarian): > 100 µM | TGI (HCT-116 colon): > 100 µM | TGI (MOLT-4 leukemia): > 100 µM | TGI (SK-MEL-28 melanoma): > 100 µM | TGI (HOP-92 NSCLC): > 100 µM | TGI (SW-620 colon): > 100 µM | TGI (IGROV1 ovarian): > 100 µM | TGI (A498 renal): > 100 µM | TGI (HL-60(TB) leukemia): > 100 µM | TGI (BT-549 breast): > 100 µM | TGI (SK-OV-3 ovarian): > 100 µM | TGI (OVCAR-8 ovarian): > 100 µM | TGI (M14 melanoma): > 100 µM | TGI (SK-MEL-5 melanoma): > 100 µM | TGI (MCF7 breast): > 100 µM | TGI (UACC-257 melanoma): > 100 µM | TGI (U251 CNS): > 100 µM | TGI (NCI-H23 lung): > 100 µM | TGI (MDA-MB-231 breast): > 100 µM | TGI (RXF 393 renal): > 100 µM | TGI (A549 NSCLC): > 100 µM | TGI (CCRF-CEM leukemia): > 100 µM | TGI (ACHN renal): > 100 µM | TGI (K-562 leukemia): > 100 µM | TGI (CAKI-1 renal): > 100 µM

c1ccc(N2CCN(CN3CCN(c4ccccc4)C3)C2)cc1
GI50 (HCT-15 colon): > 100 µM | TGI (HCT-15 colon): > 100 µM | GI50 (SF-295 CNS): > 100 µM | TGI (SF-295 CNS): > 100 µM | GI50 (HS 578T breast): > 100 µM | TGI (HS 578T breast): > 100 µM | GI50 (PC-3 prostate): > 100 µM | TGI (PC-3 prostate): > 100 µM | GI50 (SF-539 CNS): > 100 µM | TGI (SF-539 CNS): > 100 µM | GI50 (UACC-62 melanoma): > 100 µM | TGI (UACC-62 melanoma): > 100 µM | GI50 (KM12 colon): > 100 µM | TGI (KM12 colon): > 100 µM | GI50 (UO-31 renal): > 100 µM | TGI (UO-31 renal): > 100 µM | GI50 (HCC-2998 colon): > 100 µM | TGI (HCC-2998 colon): > 100 µM | GI50 (DU-145 prostate): > 100 µM | TGI (DU-145 prostate): > 100 µM | GI50 (786-0 renal): > 100 µM | TGI (786-0 renal): > 100 µM | GI50 (MDA-MB-435): > 100 µM | TGI (MDA-MB-435): > 100 µM | GI50 (SNB-19 CNS): > 100 µM | TGI (SNB-19 CNS): > 100 µM | GI50 (EKVX NSCLC): > 100 µM | TGI (EKVX NSCLC): > 100 µM | GI50 (SK-MEL-2 melanoma): > 100 µM | TGI (SK-MEL-2 melanoma): > 100 µM | GI50 (OVCAR-5 ovarian): > 100 µM | TGI (OVCAR-5 ovarian): > 100 µM | GI50 (NCI-H226 lung): > 100 µM | TGI (NCI-H226 lung): > 100 µM | GI50 (COLO 205 colon): > 100 µM | TGI (COLO 205 colon): > 100 µM | GI50 (LOX IMVI melanoma): 66.6 µM | TGI (LOX IMVI melanoma): > 100 µM | GI50 (T-47D breast): > 100 µM | TGI (T-47D breast): > 100 µM | GI50 (NCI/ADR-RES ovarian): > 100 µM | TGI (NCI/ADR-RES ovarian): > 100 µM | GI50 (HT29 colon): > 100 µM | TGI (HT29 colon): > 100 µM | GI50 (HOP-62 NSCLC): > 100 µM | TGI (HOP-62 NSCLC): > 100 µM | GI50 (NCI-H522 lung): > 100 µM | TGI (NCI-H522 lung): > 100 µM | GI50 (NCI-H460 lung): > 100 µM | TGI (NCI-H460 lung): > 100 µM | GI50 (OVCAR-4 ovarian): > 100 µM | TGI (OVCAR-4 ovarian): > 100 µM | GI50 (SN12C renal): > 100 µM | TGI (SN12C renal): > 100 µM | GI50 (SF-268 CNS): > 100 µM | TGI (SF-268 CNS): > 100 µM | GI50 (OVCAR-3 ovarian): > 100 µM | TGI (OVCAR-3 ovarian): > 100 µM | GI50 (HCT-116 colon): 41.9 µM | TGI (HCT-116 colon): > 100 µM | GI50 (MOLT-4 leukemia): 23.8 µM | TGI (MOLT-4 leukemia): > 100 µM | GI50 (SK-MEL-28 melanoma): > 100 µM | TGI (SK-MEL-28 melanoma): > 100 µM | GI50 (RPMI-8226 leukemia): 60.9 µM | TGI (RPMI-8226 leukemia): > 100 µM | GI50 (HOP-92 NSCLC): > 100 µM | TGI (HOP-92 NSCLC): > 100 µM | GI50 (SW-620 colon): 60.7 µM | TGI (SW-620 colon): > 100 µM | GI50 (IGROV1 ovarian): 25.5 µM | TGI (IGROV1 ovarian): > 100 µM | GI50 (A498 renal): 37.2 µM | TGI (A498 renal): > 100 µM | GI50 (BT-549 breast): > 100 µM | TGI (BT-549 breast): > 100 µM | GI50 (SK-OV-3 ovarian): > 100 µM | TGI (SK-OV-3 ovarian): > 100 µM | GI50 (OVCAR-8 ovarian): > 100 µM | TGI (OVCAR-8 ovarian): > 100 µM | GI50 (M14 melanoma): > 100 µM | TGI (M14 melanoma): > 100 µM | GI50 (SK-MEL-5 melanoma): > 100 µM | TGI (SK-MEL-5 melanoma): > 100 µM | GI50 (MCF7 breast): > 100 µM | TGI (MCF7 breast): > 100 µM | GI50 (SNB-75 CNS): > 100 µM | TGI (SNB-75 CNS): > 100 µM | GI50 (UACC-257 melanoma): > 100 µM | TGI (UACC-257 melanoma): > 100 µM | GI50 (U251 CNS): > 100 µM | TGI (U251 CNS): > 100 µM | GI50 (NCI-H23 lung): > 100 µM | TGI (NCI-H23 lung): > 100 µM | GI50 (MDA-MB-231 breast): > 100 µM | TGI (MDA-MB-231 breast): > 100 µM | GI50 (RXF 393 renal): > 100 µM | TGI (RXF 393 renal): > 100 µM | GI50 (A549 NSCLC): > 100 µM | TGI (A549 NSCLC): > 100 µM | GI50 (CCRF-CEM leukemia): 42 µM | TGI (CCRF-CEM leukemia): > 100 µM | GI50 (ACHN renal): 54 µM | TGI (ACHN renal): > 100 µM | GI50 (K-562 leukemia): 3.9 µM | TGI (K-562 leukemia): > 100 µM | GI50 (CAKI-1 renal): > 100 µM | TGI (CAKI-1 renal): > 100 µM
